Legend:
Assay in all cases: KINOMEscan binding assay
TBK1 = target: T1, TBK1 (Homo sapiens, UniProt Q9UHD2); conditions: read-out: % Retention on Solid Support
T1 construct: purchased DiscoveRx KINOMEscan
Outline: (§1)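 Two inhibitor concentrations (1 and 10 µM) were run. Binding to each kinase was assessed by competition with an active site-directed probe, covering upwards of 400 kinases.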

PLK2 = target: T2, PLK2 (Homo sapiens, UniProt Q9NYY3)
T2 construct: purchased DiscoveRx KINOMEscan
Outline: as §1

FGFR4 = target: T3, FGFR4 (Homo sapiens, UniProt P22455); conditions: read-out: % Retention on Solid Support
T3 construct: purchased DiscoveRx KINOMEscan
Outline: as §1

MET = target: T4, MET (Homo sapiens, UniProt P08581)
T4 construct: purchased DiscoveRx KINOMEscan
Outline: as §1

PIK3CA(H1047Y) = target: T5, PIK3CA(H1047Y) (Homo sapiens, UniProt P42336, H1047Y); conditions: read-out: % Retention on Solid Support
T5 construct: purchased DiscoveRx KINOMEscan
Outline: as §1

MLK1 = target: T6, MLK1 (Homo sapiens, UniProt P80192); conditions: read-out: % Retention on Solid Support
T6 construct: purchased DiscoveRx KINOMEscan
Outline: as §1

SRPK3 = target: T7, SRPK3 (Homo sapiens, UniProt Q9UPE1); conditions: read-out: % Retention on Solid Support
T7 construct: purchased DiscoveRx KINOMEscan
Outline: as §1

CDK4-cyclinD3 = target: T8, CDK4-cyclinD3 (Homo sapiens, UniProt P11802); conditions: 1 µM i-CDK9; read-out: % Retention on Solid Support
T8 construct: purchased DiscoveRx KINOMEscan
Outline: as §1

CSNK1A1 = target: T9, CSNK1A1 (Homo sapiens, UniProt P48729); conditions: 1 µM i-CDK9; read-out: % Retention on Solid Support
T9 construct: purchased DiscoveRx KINOMEscan
Outline: as §1

CASK = target: T10, CASK (Homo sapiens, UniProt O14936); conditions: 1 µM i-CDK9; read-out: % Retention on Solid Support
T10 construct: purchased DiscoveRx KINOMEscan
Outline: as §1

SRPK2 = target: T11, SRPK2 (Homo sapiens, UniProt P78362); conditions: read-out: % Retention on Solid Support
T11 construct: purchased DiscoveRx KINOMEscan
Outline: as §1

HUNK = target: T12, HUNK (Homo sapiens, UniProt P57058); conditions: read-out: % Retention on Solid Support
T12 construct: purchased DiscoveRx KINOMEscan
Outline: as §1

PIK3CA(I800L) = target: T13, PIK3CA(I800L) (Homo sapiens, UniProt P42336, I800L); conditions: 1 µM i-CDK9; read-out: % Retention on Solid Support
T13 construct: purchased DiscoveRx KINOMEscan
Outline: as §1

TRKC = target: T14, TRKC (Homo sapiens, UniProt Q16288); conditions: read-out: % Retention on Solid Support
T14 construct: purchased DiscoveRx KINOMEscan
Outline: as §1

STK36 = target: T15, STK36 (Homo sapiens, UniProt Q9NRP7); conditions: read-out: % Retention on Solid Support
T15 construct: purchased DiscoveRx KINOMEscan
Outline: as §1

CSNK1G1 = target: T16, CSNK1G1 (Homo sapiens, UniProt Q9HCP0)
T16 construct: purchased DiscoveRx KINOMEscan
Outline: as §1

[1] = target: T17, ABL1(Q252H)-phosphorylated (Homo sapiens, UniProt P00519, Q252H); conditions: 1 µM i-CDK9; read-out: % Retention on Solid Support
T17 construct: purchased DiscoveRx KINOMEscan
Outline: as §1

ROCK1 = target: T18, ROCK1 (Homo sapiens, UniProt Q13464); conditions: read-out: % Retention on Solid Support
T18 construct: purchased DiscoveRx KINOMEscan
Outline: as §1

TAK1 = target: T19, TAK1 (Homo sapiens, UniProt O43318); conditions: read-out: % Retention on Solid Support
T19 construct: purchased DiscoveRx KINOMEscan
Outline: as §1

EPHA6 = target: T20, EPHA6 (Homo sapiens, UniProt Q9UF33); conditions: read-out: % Retention on Solid Support
T20 construct: purchased DiscoveRx KINOMEscan
Outline: as §1

ITK = target: T21, ITK (Homo sapiens, UniProt Q08881)
T21 construct: purchased DiscoveRx KINOMEscan
Outline: as §1

CSNK1E = target: T22, CSNK1E (Homo sapiens, UniProt P49674); conditions: read-out: % Retention on Solid Support
T22 construct: purchased DiscoveRx KINOMEscan
Outline: as §1

YES = target: T23, YES (Homo sapiens, UniProt P07947); conditions: read-out: % Retention on Solid Support
T23 construct: purchased DiscoveRx KINOMEscan
Outline: as §1

PIK3CG = target: T24, PIK3CG (Homo sapiens, UniProt P48736); conditions: read-out: % Retention on Solid Support
T24 construct: purchased DiscoveRx KINOMEscan
Outline: as §1

LCK = target: T25, LCK (Homo sapiens, UniProt P06239); conditions: read-out: % Retention on Solid Support
T25 construct: purchased DiscoveRx KINOMEscan
Outline: as §1

PIK3CA(E545A) = target: T26, PIK3CA(E545A) (Homo sapiens, UniProt P42336, E545A); conditions: read-out: % Retention on Solid Support
T26 construct: purchased DiscoveRx KINOMEscan
Outline: as §1

TYRO3 = target: T27, TYRO3 (Homo sapiens, UniProt Q06418); conditions: read-out: % Retention on Solid Support
T27 construct: purchased DiscoveRx KINOMEscan
Outline: as §1

TESK1 = target: T28, TESK1 (Homo sapiens, UniProt Q15569); conditions: read-out: % Retention on Solid Support
T28 construct: purchased DiscoveRx KINOMEscan
Outline: as §1

EGFR(L747-T751del,Sins) = test system: EGFR(L747-T751del,Sins)
Outline: as §1

TLK2 = target: T29, TLK2 (Homo sapiens, UniProt Q86UE8); conditions: read-out: % Retention on Solid Support
T29 construct: purchased DiscoveRx KINOMEscan
Outline: as §1

T1 sequence (Q9UHD2 whole entry): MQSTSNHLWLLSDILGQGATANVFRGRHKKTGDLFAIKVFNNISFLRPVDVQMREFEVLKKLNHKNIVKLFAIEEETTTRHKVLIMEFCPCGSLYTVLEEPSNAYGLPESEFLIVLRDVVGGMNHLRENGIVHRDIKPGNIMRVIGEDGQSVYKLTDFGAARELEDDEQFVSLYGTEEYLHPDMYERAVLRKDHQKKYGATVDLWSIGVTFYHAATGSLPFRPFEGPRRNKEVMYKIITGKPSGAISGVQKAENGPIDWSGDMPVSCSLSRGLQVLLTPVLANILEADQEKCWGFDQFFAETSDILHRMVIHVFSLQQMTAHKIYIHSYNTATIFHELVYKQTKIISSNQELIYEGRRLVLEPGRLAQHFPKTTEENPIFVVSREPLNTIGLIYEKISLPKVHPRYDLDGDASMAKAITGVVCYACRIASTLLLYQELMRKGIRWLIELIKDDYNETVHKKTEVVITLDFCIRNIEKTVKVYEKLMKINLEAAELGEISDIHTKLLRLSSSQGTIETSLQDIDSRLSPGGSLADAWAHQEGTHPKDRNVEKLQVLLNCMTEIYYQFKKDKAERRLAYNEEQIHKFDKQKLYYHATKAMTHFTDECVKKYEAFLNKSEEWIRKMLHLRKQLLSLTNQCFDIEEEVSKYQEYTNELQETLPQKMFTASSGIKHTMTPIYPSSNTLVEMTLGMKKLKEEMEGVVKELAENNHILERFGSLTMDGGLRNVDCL
T5 sequence (P42336 whole entry H1047Y): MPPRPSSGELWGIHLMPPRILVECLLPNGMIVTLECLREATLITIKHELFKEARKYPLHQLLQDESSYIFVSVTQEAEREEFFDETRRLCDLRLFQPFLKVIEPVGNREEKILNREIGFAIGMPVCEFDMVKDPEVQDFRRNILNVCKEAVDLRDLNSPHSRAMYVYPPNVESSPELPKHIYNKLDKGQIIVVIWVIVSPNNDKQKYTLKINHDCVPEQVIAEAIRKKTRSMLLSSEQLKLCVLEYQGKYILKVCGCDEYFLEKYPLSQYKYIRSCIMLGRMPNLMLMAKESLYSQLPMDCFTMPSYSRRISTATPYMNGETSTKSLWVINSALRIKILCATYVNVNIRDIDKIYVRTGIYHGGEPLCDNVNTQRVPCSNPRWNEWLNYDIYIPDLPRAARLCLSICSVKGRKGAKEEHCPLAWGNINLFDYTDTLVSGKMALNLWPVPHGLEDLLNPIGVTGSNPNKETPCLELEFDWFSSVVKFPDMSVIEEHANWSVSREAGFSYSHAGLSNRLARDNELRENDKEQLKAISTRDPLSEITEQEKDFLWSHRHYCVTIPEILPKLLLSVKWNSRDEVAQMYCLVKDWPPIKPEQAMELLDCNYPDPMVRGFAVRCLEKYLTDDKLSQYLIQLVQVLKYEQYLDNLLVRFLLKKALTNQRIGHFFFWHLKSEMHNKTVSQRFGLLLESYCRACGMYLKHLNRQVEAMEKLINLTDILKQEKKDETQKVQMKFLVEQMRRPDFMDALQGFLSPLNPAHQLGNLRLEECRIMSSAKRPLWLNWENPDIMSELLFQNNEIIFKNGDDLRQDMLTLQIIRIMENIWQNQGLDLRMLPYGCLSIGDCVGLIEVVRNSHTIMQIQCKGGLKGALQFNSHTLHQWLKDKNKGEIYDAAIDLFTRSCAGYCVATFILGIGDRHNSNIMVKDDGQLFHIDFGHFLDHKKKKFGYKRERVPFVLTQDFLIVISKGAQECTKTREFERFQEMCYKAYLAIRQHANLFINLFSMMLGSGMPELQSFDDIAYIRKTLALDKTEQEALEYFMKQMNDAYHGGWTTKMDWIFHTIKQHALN
T11 sequence (P78362 whole entry): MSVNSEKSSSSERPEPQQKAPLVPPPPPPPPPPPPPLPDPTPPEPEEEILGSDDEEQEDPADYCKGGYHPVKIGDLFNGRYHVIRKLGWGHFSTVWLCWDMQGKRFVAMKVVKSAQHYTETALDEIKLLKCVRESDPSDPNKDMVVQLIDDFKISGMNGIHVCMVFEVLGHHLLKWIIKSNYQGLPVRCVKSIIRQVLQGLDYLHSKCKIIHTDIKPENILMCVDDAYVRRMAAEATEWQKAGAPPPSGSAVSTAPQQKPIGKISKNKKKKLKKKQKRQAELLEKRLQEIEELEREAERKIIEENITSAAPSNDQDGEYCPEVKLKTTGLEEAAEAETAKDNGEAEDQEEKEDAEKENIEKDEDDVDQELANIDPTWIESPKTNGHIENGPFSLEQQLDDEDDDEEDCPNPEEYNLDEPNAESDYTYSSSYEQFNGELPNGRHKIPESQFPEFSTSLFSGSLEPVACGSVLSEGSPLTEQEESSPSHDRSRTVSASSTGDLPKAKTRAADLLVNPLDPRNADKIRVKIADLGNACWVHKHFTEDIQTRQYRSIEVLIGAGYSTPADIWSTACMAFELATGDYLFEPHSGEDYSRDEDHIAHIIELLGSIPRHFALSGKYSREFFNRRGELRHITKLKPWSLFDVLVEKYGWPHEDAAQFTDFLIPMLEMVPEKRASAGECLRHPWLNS
T21 sequence (Q08881 whole entry): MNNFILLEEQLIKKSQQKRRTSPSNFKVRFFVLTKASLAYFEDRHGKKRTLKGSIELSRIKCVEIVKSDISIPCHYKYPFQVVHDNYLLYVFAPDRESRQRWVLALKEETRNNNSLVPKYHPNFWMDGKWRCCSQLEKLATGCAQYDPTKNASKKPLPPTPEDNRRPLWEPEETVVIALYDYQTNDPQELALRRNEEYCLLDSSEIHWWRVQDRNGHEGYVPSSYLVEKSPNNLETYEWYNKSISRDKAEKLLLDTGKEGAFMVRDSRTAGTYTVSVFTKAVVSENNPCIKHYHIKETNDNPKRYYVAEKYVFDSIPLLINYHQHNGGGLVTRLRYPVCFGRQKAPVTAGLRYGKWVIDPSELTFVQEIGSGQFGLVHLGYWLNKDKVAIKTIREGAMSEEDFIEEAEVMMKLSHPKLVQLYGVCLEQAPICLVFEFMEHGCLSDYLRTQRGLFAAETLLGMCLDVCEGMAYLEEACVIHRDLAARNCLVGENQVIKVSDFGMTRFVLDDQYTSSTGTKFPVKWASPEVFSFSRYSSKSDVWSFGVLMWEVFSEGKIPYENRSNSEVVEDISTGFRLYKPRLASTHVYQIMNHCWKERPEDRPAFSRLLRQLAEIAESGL
T23 sequence (P07947 whole entry): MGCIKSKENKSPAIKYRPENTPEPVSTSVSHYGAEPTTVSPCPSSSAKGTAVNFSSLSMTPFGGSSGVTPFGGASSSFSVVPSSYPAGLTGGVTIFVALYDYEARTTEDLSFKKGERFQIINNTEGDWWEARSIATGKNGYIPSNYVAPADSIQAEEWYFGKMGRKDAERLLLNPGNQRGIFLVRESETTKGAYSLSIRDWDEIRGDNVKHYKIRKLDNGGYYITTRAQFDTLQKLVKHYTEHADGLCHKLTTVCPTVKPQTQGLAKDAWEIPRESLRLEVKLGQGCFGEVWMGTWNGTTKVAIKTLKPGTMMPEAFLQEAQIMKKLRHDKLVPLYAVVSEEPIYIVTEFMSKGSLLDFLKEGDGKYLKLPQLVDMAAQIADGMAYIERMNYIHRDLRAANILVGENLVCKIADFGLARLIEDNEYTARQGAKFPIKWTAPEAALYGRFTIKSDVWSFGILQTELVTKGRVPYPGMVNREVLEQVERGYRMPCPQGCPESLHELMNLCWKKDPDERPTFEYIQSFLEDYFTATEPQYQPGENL
T20 sequence (Q9UF33 23-1036): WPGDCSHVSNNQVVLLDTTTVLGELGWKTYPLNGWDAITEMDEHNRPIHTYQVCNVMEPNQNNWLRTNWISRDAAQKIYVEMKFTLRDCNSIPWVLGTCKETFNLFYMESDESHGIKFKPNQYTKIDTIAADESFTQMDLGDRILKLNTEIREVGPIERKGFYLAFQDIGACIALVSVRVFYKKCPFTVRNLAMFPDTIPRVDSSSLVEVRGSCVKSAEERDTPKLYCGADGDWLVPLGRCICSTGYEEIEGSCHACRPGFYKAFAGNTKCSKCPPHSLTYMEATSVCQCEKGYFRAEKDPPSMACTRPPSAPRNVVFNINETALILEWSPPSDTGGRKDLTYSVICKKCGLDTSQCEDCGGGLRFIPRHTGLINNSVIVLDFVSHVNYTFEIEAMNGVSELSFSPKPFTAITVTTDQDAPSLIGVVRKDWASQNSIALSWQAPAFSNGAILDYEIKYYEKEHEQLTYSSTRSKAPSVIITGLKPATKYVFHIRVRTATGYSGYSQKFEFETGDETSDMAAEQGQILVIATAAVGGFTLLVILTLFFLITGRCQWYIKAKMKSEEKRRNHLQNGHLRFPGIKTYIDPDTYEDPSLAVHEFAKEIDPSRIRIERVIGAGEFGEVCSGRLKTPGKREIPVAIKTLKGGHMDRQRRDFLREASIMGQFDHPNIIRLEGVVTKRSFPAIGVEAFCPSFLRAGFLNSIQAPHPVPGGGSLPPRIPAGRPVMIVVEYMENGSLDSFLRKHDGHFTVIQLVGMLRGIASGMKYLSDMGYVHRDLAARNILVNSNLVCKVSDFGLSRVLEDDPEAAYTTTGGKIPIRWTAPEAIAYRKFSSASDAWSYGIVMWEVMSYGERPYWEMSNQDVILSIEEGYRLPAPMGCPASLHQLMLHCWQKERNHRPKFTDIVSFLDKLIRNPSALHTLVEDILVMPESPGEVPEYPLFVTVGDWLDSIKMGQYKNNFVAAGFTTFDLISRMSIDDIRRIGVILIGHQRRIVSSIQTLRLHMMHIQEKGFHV
T22 sequence (P49674 whole entry): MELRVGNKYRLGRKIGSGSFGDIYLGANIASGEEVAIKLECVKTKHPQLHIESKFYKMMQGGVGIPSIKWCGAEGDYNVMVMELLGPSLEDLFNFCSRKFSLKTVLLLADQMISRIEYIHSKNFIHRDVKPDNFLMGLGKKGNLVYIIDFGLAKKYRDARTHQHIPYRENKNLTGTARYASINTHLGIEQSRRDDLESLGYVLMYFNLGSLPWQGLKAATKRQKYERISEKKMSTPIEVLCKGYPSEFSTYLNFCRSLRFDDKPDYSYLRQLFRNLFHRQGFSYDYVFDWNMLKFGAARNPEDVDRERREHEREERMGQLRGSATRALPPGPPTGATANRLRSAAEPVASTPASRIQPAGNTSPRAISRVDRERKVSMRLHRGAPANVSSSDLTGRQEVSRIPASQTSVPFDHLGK

**Q.** Which results are given for `N[C@H]1CC[C@H](Nc2cc(-c3cccc(NCc4cccc(F)c4)n3)c(Cl)cn2)CC1` [i-CDK9, N2′-(trans-4-aminocyclohexyl)-5′-chloro-N6-(3-fluorobenzyl)-2,4′-bipyridine-2′,6-diamine]?
**A.** remaining binding at 1 µM (TBK1; 1 µM i-CDK9): 100%; remaining binding at 10 µM (TBK1; 10 µM i-CDK9): 100%; % Retention on Solid Support (PLK2; 1 µM i-CDK9): 100%; % Retention on Solid Support (PLK2; 10 µM i-CDK9): 100%; remaining binding at 1 µM (FGFR4; 1 µM i-CDK9): 98%; remaining binding at 10 µM (FGFR4; 10 µM i-CDK9): 100%; % Retention on Solid Support (MET; 1 µM i-CDK9): 94%; % Retention on Solid Support (MET; 10 µM i-CDK9): 96%; remaining binding at 1 µM (PIK3CA(H1047Y); 1 µM i-CDK9): 100%; remaining binding at 10 µM (PIK3CA(H1047Y); 10 µM i-CDK9): 100%; remaining binding at 1 µM (MLK1; 1 µM i-CDK9): 100%; remaining binding at 10 µM (MLK1; 10 µM i-CDK9): 100%; remaining binding at 1 µM (SRPK3; 1 µM i-CDK9): 100%; remaining binding at 10 µM (SRPK3; 10 µM i-CDK9): 100%; remaining binding at 1 µM (CDK4-cyclinD3): 100%; remaining binding at 1 µM (CSNK1A1): 69%; remaining binding at 1 µM (CASK): 100%; remaining binding at 1 µM (SRPK2; 1 µM i-CDK9): 57%; remaining binding at 10 µM (SRPK2; 10 µM i-CDK9): 100%; remaining binding at 1 µM (HUNK; 1 µM i-CDK9): 86%; remaining binding at 10 µM (HUNK; 10 µM i-CDK9): 52%; remaining binding at 1 µM (PIK3CA(I800L)): 100%; remaining binding at 1 µM (TRKC; 1 µM i-CDK9): 63%; remaining binding at 10 µM (TRKC; 10 µM i-CDK9): 95%; remaining binding at 1 µM (STK36; 1 µM i-CDK9): 92%; remaining binding at 10 µM (STK36; 10 µM i-CDK9): 68%; % Retention on Solid Support (CSNK1G1; 1 µM i-CDK9): 81%; % Retention on Solid Support (CSNK1G1; 10 µM i-CDK9): 93%; remaining binding at 1 µM [1]: 100%; remaining binding at 1 µM (ROCK1; 1 µM i-CDK9): 100%; remaining binding at 10 µM (ROCK1; 10 µM i-CDK9): 93%; remaining binding at 1 µM (TAK1; 1 µM i-CDK9): 100%; remaining binding at 10 µM (TAK1; 10 µM i-CDK9): 82%; remaining binding at 1 µM (EPHA6; 1 µM i-CDK9): 100%; remaining binding at 10 µM (EPHA6; 10 µM i-CDK9): 91%; % Retention on Solid Support (ITK; 1 µM i-CDK9): 100%; % Retention on Solid Support (ITK; 10 µM i-CDK9): 86%; remaining binding at 1 µM (CSNK1E; 1 µM i-CDK9): 100%; remaining binding at 10 µM (CSNK1E; 10 µM i-CDK9): 45%; remaining binding at 1 µM (YES; 1 µM i-CDK9): 84%; remaining binding at 10 µM (YES; 10 µM i-CDK9): 90%; remaining binding at 1 µM (PIK3CG; 1 µM i-CDK9): 100%; remaining binding at 10 µM (PIK3CG; 10 µM i-CDK9): 100%; remaining binding at 1 µM (LCK; 1 µM i-CDK9): 100%; remaining binding at 10 µM (LCK; 10 µM i-CDK9): 100%; remaining binding at 1 µM (PIK3CA(E545A); 1 µM i-CDK9): 100%; remaining binding at 10 µM (PIK3CA(E545A); 10 µM i-CDK9): 100%; remaining binding at 1 µM (TYRO3; 1 µM i-CDK9): 71%; remaining binding at 10 µM (TYRO3; 10 µM i-CDK9): 100%; remaining binding at 1 µM (TESK1; 1 µM i-CDK9): 100%; remaining binding at 10 µM (TESK1; 10 µM i-CDK9): 57%; % Retention on Solid Support (EGFR(L747-T751del,Sins); 1 µM i-CDK9): 82%; % Retention on Solid Support (EGFR(L747-T751del,Sins); 10 µM i-CDK9): 61%; remaining binding at 1 µM (TLK2; 1 µM i-CDK9): 100%; remaining binding at 10 µM (TLK2; 10 µM i-CDK9): 100%
